Measured values reported in patent publication US8377943B2, “2,4-diaminopyrimidine derivates as PTK2-inhibitors for the treatment of abnormal cell growth” (Boehringer Ingelheim International GmbH, priority 2008, dated 2013).

What was measured:
PTK2 = biological target: T1, PTK2 (Homo sapiens, UniProt Q05397); test: PTK2 Enzyme Test (DELFIA assay, poly-Glu-Tyr substrate); type: biochemical; details: active PTK2 enzyme, 50 μM ATP in ATP Mix, 1 h pre-incubation
T1 construct: purchased Invitrogen PV3832
Protocol: This test uses active PTK2 enzyme (Invitrogen Code PV3832) and poly-Glu-Tyr (4:1, Sigma P-0275) as the kinase substrate. The kinase activity is detected by means of the phosphorylation of the substrate in a DELFIA™ assay. The phosphorylated substrate is detected with the Europium-labelled phosphotyrosine antibody PY20 (Perkin Elmer, No.: AD0038).
In order to determine concentration-activity curves with PTK2-inhibitors the compounds are serially diluted in 10% DMSO/H2O and 10 μL of each dilution are dispensed per well in a 96-well microtitre plate (clear U-shaped base plate, Greiner No. 650101) (the inhibitors are tested in duplicates) and mixed with 10 μL/well of PTK2 kinase (0.01 μg/well). PTK2 kinase is diluted accordingly beforehand with kinase dilution buffer (20 mM TRIS/HCl pH 7.5, 0.1 mM EDTA, 0.1 mM EGTA, 0.286 mM sodium orthovanadate, 10% glycerol with the addition of freshly prepared BSA (fraction V 1 mg/mL) and DTT (1 mM)). The test compound and the PTK2 kinase are pre-incubated for 1 h at RT and shaken at 500 rpm. Then 20 μL ATP Mix (30 mM TRIS/HCl pH 7.5, 0.02% Brij, 0.2 mM sodium orthovanadate, 10 mM magnesium acetate, 0.1 mM EGTA, 1× Phosphatase Inhibitor Cocktail 1 (Sigma, No.: P2850), 50 μM ATP (Sigma, No.: A3377; 15 mM stock solution)) are added. The reaction is started by the addition of 10 μL/well of poly (Glu,Tyr) substrate (25 μg/well poly (Glu,Tyr), 0.05 μg/well biotinylated poly (Glu,Tyr) dissolved in 250 mM TRIS/HCl pH 7.5, 9 mM DTT)—the final concentration of DMSO is 2%. After 1 h kinase reaction (the plates are shaken at 500 rpm), the reaction is stopped by the addition of 12 μL/well of 100 mM EDTA, pH 8. And shaken for a further 5 min at RT (500 U/min).
55 μL of the reaction mixture are transferred into a streptavidin plate (Strepta Well High Bind (transparent, 96-well) made by Roche, No.: 11989685001) and incubated for 1 h at RT (shaking at 500 rpm). Then the microtitre plate is washed three times with 200 μL/well D-PBS (Invitrogen, No.:14190). 100 μL of 1:2000 diluted DELFIA Eu-N1 Anti-Phosphotyrosine PY20 antibody (Perkin Elmer, No.: AD0038, 1:2000 diluted in DELFIA test buffer (Perkin Elmer, No.: 1244-111)) is then added and it is incubated for 1 h at RT (shaking at 500 rpm). Then the plate is washed three times with 200 μL/well DELFIA washing buffer (Perkin Elmer, No.: 1244-114), 200 μL/well strengthening solution (Perkin Elmer, No.: 1244-105) is added and the whole is incubated for 10 min at RT (shaking at 300 rpm).
The time-delayed europium fluorescence is then measured in a microtitre plate reader (Victor, Perkin Elmer). The positive control consists of wells that contain solvent (2% DMSO in test buffer) and display uninhibited kinase activity. Wells that contain test buffer instead of enzyme act as a control for the background kinase activity.
The IC50 values are determined from concentration-activity analyses by iterative calculation using a sigmoidal curve analysis algorithm (FIFTY, based on GraphPAD Prism Version 3.03) with a variable Hill coefficient.

[1] = biological target: T2, PTK2-phosphorylation at tyrosine 397 (pY397) (Homo sapiens, UniProt Q05397); test: Phospho-PTK2 (pY397) Assay in PC-3 cells; type: cell-based; details: PC-3 prostate carcinoma cells, 2 h incubation; read-out: PC3pPTK2 Y397 EC50
T2 construct: endogenous in cells; host or cells: PC-3 (ATCC CRL-1435)
Protocol: This cellular test is used to determine the influence of PTK2-inhibitors on the state of the PTK2-phosphorylation at tyrosine 397 (pY397).
PC-3 cells (prostate carcinoma, ATCC CRL-1435) are grown in cell culture flasks (175 cm^2) with F12 Kaighn's Medium (Gibco, No.: 21127) with the addition of 10% foetal calf serum (Invitrogen, No.: 16000-044). The cultures are incubated in the incubator at 37° C. and 5% CO2 and run twice a week.
For the test, 2×10^4 cells pro well/[…] are plated out in 96-well microtitre plates (Costar, No.: 3598) and incubated overnight in the incubator at 37° C. and 5% CO2. The test compounds (10 μL from serial dilution) are added the next day. The concentration of the test compounds usually covers a range of 50 μM and 0.8 nM. The test compounds (stock solution: 10 mM in 100% DMSO) are diluted in medium/medium 10% DMSO such that the final concentration is 1% DMSO. The cells are then incubated in the incubator at 37° C. and 5% CO2 for 2 h. Then the culture supernatant is removed and the cells are fixed with 150 μL 4% formaldehyde in D-PBS for 20 min at RT. The cell lawn is washed five times with 200 μL 0.1% Triton X-100 in D-PBS for 5 min in each case and then incubated for 90 min with blocking buffer (5% skimmed milk powder (Maresi Fixmilch) in TBST (25 mM Tris/HCl, pH 8.0, 150 mM NaCl, 0.05% Tween 20). The blocking buffer is replaced by 50 μL of the first antibody anti-phospho PTK2 [pY397] rabbit monoclonal (Invitrogen/Biosource, No.: 44-625G), which is diluted 1:200 in blocking buffer. For control purposes, alternatively a PTK2 [total] antibody (clone 4.47 mouse monoclonal, Upstate, No.: 05-537), diluted 1:400 in blocking buffer is used. This incubation is carried out at 4° C. overnight. Then the cell lawn is washed five times with 100 μL of 0.1% Tween in D-PBS for 5 min in each case and 50 μL/well of second antibody are added. In order to detect bound phospho-PTK2 [pY397] antibody a goat-anti-rabbit antibody is used which is coupled with horseradish peroxidase (Dako, No.: P0448; 1:500 dilution in blocking buffer). In order to detect bound PTK2 [total]-antibodies a rabbit-anti-mouse antibody is used, which is also coupled with horseradish peroxidase (Dako, No.: PO161; 1:1000 dilution in blocking buffer). This incubation is carried out for 1 h at RT with gentle shaking. The cell lawn is then again washed five times with 100 μL of 0.1% Tween in D-PBS for 5 min in each case. […] The EC50 values are determined from concentration-activity analyses by iterative calculation with the aid of a sigmoidal curve analysis algorithm (FIFTY, based on GraphPAD Prism Version 3.03) with a variable Hill coefficient.

T2 sequence (Q05397 whole entry): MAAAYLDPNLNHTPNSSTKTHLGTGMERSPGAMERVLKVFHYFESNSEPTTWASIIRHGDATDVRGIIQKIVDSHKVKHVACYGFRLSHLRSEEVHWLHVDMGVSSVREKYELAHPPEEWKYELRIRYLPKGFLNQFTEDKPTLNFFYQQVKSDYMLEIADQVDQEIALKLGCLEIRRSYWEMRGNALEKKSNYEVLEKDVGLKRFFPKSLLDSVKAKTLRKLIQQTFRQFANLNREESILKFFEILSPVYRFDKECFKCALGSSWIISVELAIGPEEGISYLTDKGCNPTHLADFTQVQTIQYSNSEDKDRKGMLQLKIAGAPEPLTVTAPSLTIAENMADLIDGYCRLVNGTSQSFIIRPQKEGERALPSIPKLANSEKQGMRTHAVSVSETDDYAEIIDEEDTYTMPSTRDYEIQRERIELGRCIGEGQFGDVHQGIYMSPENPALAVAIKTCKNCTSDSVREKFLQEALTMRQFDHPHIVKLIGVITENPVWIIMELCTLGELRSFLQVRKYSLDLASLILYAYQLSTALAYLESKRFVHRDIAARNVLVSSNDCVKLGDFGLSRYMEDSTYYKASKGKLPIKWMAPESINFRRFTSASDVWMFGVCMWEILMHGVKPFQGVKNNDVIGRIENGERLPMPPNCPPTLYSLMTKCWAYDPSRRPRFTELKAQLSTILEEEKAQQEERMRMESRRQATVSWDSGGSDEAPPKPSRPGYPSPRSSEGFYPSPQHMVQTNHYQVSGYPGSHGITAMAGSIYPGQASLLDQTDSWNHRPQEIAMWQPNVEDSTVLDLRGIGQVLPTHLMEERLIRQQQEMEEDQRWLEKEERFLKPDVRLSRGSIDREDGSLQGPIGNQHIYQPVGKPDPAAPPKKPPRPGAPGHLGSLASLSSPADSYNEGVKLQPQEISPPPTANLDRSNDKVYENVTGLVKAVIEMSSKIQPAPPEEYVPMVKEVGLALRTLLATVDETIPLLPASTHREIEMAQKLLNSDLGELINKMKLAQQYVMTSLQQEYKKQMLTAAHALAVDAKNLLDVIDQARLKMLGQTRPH
T1 sequence (Q05397 whole entry): as above

Row | Compound | IC50 (PTK2) | EC50 [1]
1 | COc1cc(CN(C)C)ccc1Nc1ncc(C(F)(F)F)c(NCc2ccc(C)cc2N(C)S(C)(=O)=O)n1 [Example 3] | 1 nM | 0.11 nM
2 | COc1cc(CN(C)C)ccc1Nc1ncc(C(F)(F)F)c(NCc2ccc(F)cc2N(C)S(C)(=O)=O)n1 [Example 5] | 0.86 nM | 0.12 nM
3 | CCN(CC)CCNC(=O)c1ccc(Nc2ncc(C(F)(F)F)c(NCc3ccc(C)cc3N(C)S(C)(=O)=O)n2)c(OC)c1 [Example 12] | 2 nM | 0.16 nM
4 | COc1cc(C(=O)NCCn2ccnc2)ccc1Nc1ncc(C(F)(F)F)c(NCc2ccc(C)cc2N(C)S(C)(=O)=O)n1 [Example 13] | 2 nM | 0.16 nM
5 | COc1cc(C(=O)N[C@@H]2CCN(C)C[C@H]2F)c(F)cc1Nc1ncc(C(F)(F)F)c(NCc2ccc(C)cc2N(C)S(C)(=O)=O)n1 [Example 19] | 3 nM | 0.2 nM
6 | COc1cc(C(=O)N[C@H]2CCN(C)C[C@H]2F)c(F)cc1Nc1ncc(C(F)(F)F)c(NCc2ccc(C)cc2N(C)S(C)(=O)=O)n1 [Example 22] | 3 nM | 0.22 nM
7 | COc1cc(C(=O)N[C@H]2CCN(C)C2)c(F)cc1Nc1ncc(C(F)(F)F)c(NCc2ccc(C)cc2N(C)S(C)(=O)=O)n1 [Example 23] | 1 nM | 0.23 nM
8 | COc1cc(C(=O)N[C@@H]2CCN(C)C[C@@H]2F)c(F)cc1Nc1ncc(C(F)(F)F)c(NCc2ccc(C)cc2N(C)S(C)(=O)=O)n1 [Example 24] | 3 nM | 0.23 nM
9 | CNCc1ccc(Nc2ncc(C(F)(F)F)c(NCc3ccc(C)cc3N(C)S(C)(=O)=O)n2)c(OC)c1 [Example 25] | 1 nM | 0.24 nM
10 | CNC(=O)c1cc(OC)c(Nc2ncc(C(F)(F)F)c(NCc3ccc(OC)cc3N(C)S(C)(=O)=O)n2)cc1F [Example 127] | 4 nM | –
11 | COc1ccc(CNc2nc(Nc3cc(F)c(C(=O)NC(C)(C)C)cc3OC)ncc2C(F)(F)F)c(N(C)S(C)(=O)=O)c1 [Example 128] | 22 nM | –
12 | Cc1ccc(CNc2nc(Nc3cc(F)c(N4CCNCC4)cc3F)ncc2C(F)(F)F)c(N(C)S(C)(=O)=O)c1 [Example 129] | 1 nM | –
13 | CNC(=O)c1ccc(Nc2ncc(C(F)(F)F)c(NCc3ccc(C)cc3N(C)S(C)(=O)=O)n2)c(C)c1 [Example 130] | 1 nM | –

Further lines, results first:

Row | IC50 (PTK2) | EC50 [1] | Compound
14 | 2 nM | 0.05 nM | CCN1CCC(NC(=O)c2cc(OC)c(Nc3ncc(C(F)(F)F)c(NCc4ccc(C)cc4N(C)S(C)(=O)=O)n3)cc2F)CC1 [Example 1]
15 | 1 nM | 0.11 nM | COc1cc(C(=O)NCCN(C)C)ccc1Nc1ncc(C(F)(F)F)c(NCc2ccc(C)cc2N(C)S(C)(=O)=O)n1 [Example 4]
16 | 3 nM | 0.13 nM | COc1cc(C(=O)NC[C@@H](C)N2CCCC2)ccc1Nc1ncc(C(F)(F)F)c(NCc2ccc(C)cc2N(C)S(C)(=O)=O)n1 [Example 6]
17 | 3 nM | 0.14 nM | COc1cc(C(=O)NC2CCCN(C)C2)ccc1Nc1ncc(C(F)(F)F)c(NCc2ccc(C)cc2N(C)S(C)(=O)=O)n1 (centres unmarked) [Example 7]
18 | 2 nM | 0.14 nM | CCN1CCC(NC(=O)c2ccc(Nc3ncc(C(F)(F)F)c(NCc4ccc(C)cc4N(C)S(C)(=O)=O)n3)c(OC)c2)CC1 [Example 8]
19 | 6 nM | 0.14 nM | COc1cc(C(=O)NC2CCN(C(C)=O)CC2)ccc1Nc1ncc(C(F)(F)F)c(NCc2ccc(C)cc2N(C)S(C)(=O)=O)n1 [Example 9]
20 | 2 nM | 0.14 nM | COc1cc(C(=O)N[C@@H]2CCCN(C(C)C)C2)ccc1Nc1ncc(C(F)(F)F)c(NCc2ccc(C)cc2N(C)S(C)(=O)=O)n1 [Example 10]
21 | 4 nM | 0.16 nM | COc1cc(C(=O)NC2CC(C)(C)N(C)C(C)(C)C2)ccc1Nc1ncc(C(F)(F)F)c(NCc2ccc(C)cc2N(C)S(C)(=O)=O)n1 [Example 11]
22 | 4 nM | 0.17 nM | COCCNC(=O)c1ccc(Nc2ncc(C(F)(F)F)c(NCc3ccc(C)cc3N(C)S(C)(=O)=O)n2)c(OC)c1 [Example 14]
23 | 3 nM | 0.18 nM | COc1cc(C(=O)NC2CCN(C(C)C)CC2)ccc1Nc1ncc(C(F)(F)F)c(NCc2ccc(C)cc2N(C)S(C)(=O)=O)n1 [Example 15]
24 | 4 nM | 0.19 nM | COc1cc(C(=O)NC2CCN(C3CCCCC3)CC2)ccc1Nc1ncc(C(F)(F)F)c(NCc2ccc(C)cc2N(C)S(C)(=O)=O)n1 [Example 16]
25 | 2 nM | 0.19 nM | CCN1CCC[C@@H](NC(=O)c2ccc(Nc3ncc(C(F)(F)F)c(NCc4ccc(C)cc4N(C)S(C)(=O)=O)n3)c(OC)c2)C1 [Example 17]
26 | 3 nM | 0.2 nM | COc1cc(C(=O)NC2CCN(CC(F)F)CC2)ccc1Nc1ncc(C(F)(F)F)c(NCc2ccc(C)cc2N(C)S(C)(=O)=O)n1 [Example 18]
27 | 2 nM | 0.22 nM | COc1cc(C(=O)NCCN2CCCCC2)ccc1Nc1ncc(C(F)(F)F)c(NCc2ccc(C)cc2N(C)S(C)(=O)=O)n1 [Example 20]
28 | 5 nM | 0.22 nM | CCOCCNC(=O)c1ccc(Nc2ncc(C(F)(F)F)c(NCc3ccc(C)cc3N(C)S(C)(=O)=O)n2)c(OC)c1 [Example 21]
29 | 3 nM | 0.25 nM | COc1cc(C(=O)NC2CCC3C(CCN3C)C2)ccc1Nc1ncc(C(F)(F)F)c(NCc2ccc(C)cc2N(C)S(C)(=O)=O)n1 (centres unmarked) [Example 26]
30 | 4 nM | – | COc1cc(C(=O)N[C@@H]2CCN(C)C[C@H]2F)ccc1Nc1ncc(C(F)(F)F)c(NCc2ccc(C)cc2N(C)S(C)(=O)=O)n1 [Example 131]
31 | 4 nM | – | CCc1cc(C(=O)NC2CCOCC2)ccc1Nc1ncc(C(F)(F)F)c(NCc2ccc(C)cc2N(C)S(C)(=O)=O)n1 [Example 132]
